# Data published in US20200054671A1, “TREATMENT OF ANXIETY DISORDER AND AUGMENTATION OF ANTI-ANXIETY INTERVENTIONS BY ADMINISTRATION OF NOBLE GAS CONTAINING MIXTURES” (NOBILIS THERAPEUTICS, INC., priority 2016, published 2020).
# Tests used:
# [1] = test system: patients with panic disorder; assay: Clinical Global Impression Scale, severity of the disease subscale (CGI-S); assay type: in vivo, human
# Protocol: (§1) This investigator-initiated study was performed under a prospective clinical trial protocol approved by the Institute of Mental Health and Addictology, which is accredited by the Ministry of Health of the Russian Federation to conduct clinical trials (#57689). Study conduct was in compliance with all ethical standards and good clinical practice. Ninety outpatients with a diagnosis of “panic disorder» (F41.0) according to ICD-10 were enrolled through the Institute of Mental Health and Addictology. Five patients dropped out of the study due to minor side effects, predominantly lightheadedness and headaches, and 4 patients dropped out of the study for unspecified reasons. As the intention to treat analysis was not utilized due to the open label design of the study, 81 patients with PD (49 women and 32 men), mean age was 35.2 years (range […]) were studied. Patients were randomized into 2 groups: with “pure” PD (group 1) and “comorbid” PD, when it was co-diagnosed with other mental illnesses (group 2). All patients with isolated PD (Group 1, n=42) received monotherapy with xenon at the aforementioned schedule, while the majority of patients (94.9%) with PD and comorbid conditions, which were predominantly depression (group 2, n=39), in addition to xenon administration continued treatment for comorbid psychiatric disorders, which mainly consisted of antidepressants (SSRIs and SNRIs). In these patients, the reason for xenon treatment was the increase in the frequency and severity of panic attacks despite ongoing treatment with stable pharmacotherapy of at least 3 to 6 months' duration.
# (§2) Administration of xenon was performed through inhalation of xenon-oxygen mixtures that were escalated from 15%/85% to 30%/70% with titration increments of 5% per session. Each patient in the study underwent between 6 and 7 treatments with xenon-oxygen mixture. The first three sessions were carried out daily and from session 4 onward—every other day. The selected dosing regime and the composition of the gas mixtures were based on the historical evidence of safety of subanesthetic use of xenon in imaging.
# (§3) Medical grade xenon (“medksenon»®, 99.9999%, manufacturer: Atommedcenter, Moscow, Russia) and medical grade oxygen in separate containers were admixed. Mixing and administration of gases in preset concentration and volume was accomplished with the use of the medical device MAGi-AMTS1, which enables the operator to adjust the concentration of xenon in the gas mixture, and which contains the electronic flow meter with a software module that allows for such adjustments. Administration of xenon-oxygen mixture to the patient was carried out via a face mask. Patients were asked to slowly inhale, holding breath for 5 to 10 seconds; exhale into the loop and after 35-40 seconds exhale outside the contour and breath in the new portion of gas mixture. Xenon inhalation lasted from 2.5 to 4 minutes, and the xenon consumption was capped at 3.0 liters per procedure. The patients were assessed subjectively by the provider, while the vital signs (pulse, blood pressure, oxygen saturation) were continuously monitored.
# (§4) Patients were evaluated after each xenon inhalation and at 30 and 180 days after completion of treatment. To this end, we employed clinical psychopathological and clinical catamnestic methods, and psychometric scales that are widely used internationally to assess the treatment of mental disorders. Scale Assessment, Zung Self-Rating Anxiety Scale (SAS) was performed prior to starting therapy (V1), and at 1 and 6 months after treatment. According to this scale, SAS index of less than 45 points corresponds to the normal value, 45-59—to mild-to-moderate degree of anxiety, 60-74—to high degree of anxiety, more than 75—to an extremely high-level of anxiety. […]
# NMDA receptor = NMDA receptor (Homo sapiens, UniProt Q05586); conditions: glycine site of the NMDA receptor; cited from earlier work
# [2] = test system: patients with panic disorder; assay: Zung Self-Rating Anxiety Scale (SAS); assay type: in vivo, human
# Protocol: as §1, §2, §3, §4
# [3] = «Pure PD» (n = 42), total given 39
structure (smiles),measurement,setting,value
[Xe] [xenon],"CGI-S, V2: Moderately expressed disease, share of patients","[1]; Comorbid PD (n = 39), total 42",2.4%
same,"CGI-S, V2: Serious disease, share of patients","[1]; Comorbid PD (n = 39), total 42",4.8%
same,"CGI-S, V2: Significantly expressed disease, share of patients","[1]; Comorbid PD (n = 39), total 42",92.9%
same,"CGI-S, V3: Significantly expressed disease, share of patients","[1]; Comorbid PD (n = 39), total 42",88.1%
same,"CGI-S, V4: Moderately expressed disease, share of patients","[1]; Comorbid PD (n = 39), total 42",52.4%
same,"CGI-S, V4: Significantly expressed disease, share of patients","[1]; Comorbid PD (n = 39), total 42",.0%
same,"CGI-S, V4: Weakly expressed disease, share of patients","[1]; Comorbid PD (n = 39), total 42",47.6%
same,"CGI-S, V5: Borderline state, share of patients","[1]; Comorbid PD (n = 39), total 42",14.3%
same,"CGI-S, V5: Moderately expressed disease, share of patients","[1]; Comorbid PD (n = 39), total 42",.0%
same,"CGI-S, V5: Significantly expressed disease, share of patients","[1]; Comorbid PD (n = 39), total 42",.0%
same,"CGI-S, V5: Weakly expressed disease, share of patients","[1]; Comorbid PD (n = 39), total 42",85.7%
same,"CGI-S, V6: Normal state, share of patients","[1]; Comorbid PD (n = 39), total 42",11.9%
same,"CGI-S, V6: Weakly expressed disease, share of patients","[1]; Comorbid PD (n = 39), total 42",.0%
same,"CGI-S, V3: Moderately expressed disease, share of patients","[1]; Comorbid PD (n = 39), total 42, after the third procedure",11.9%
same,"CGI-S, V6: Borderline state, share of patients","[1]; Comorbid PD (n = 39), total 42, upon completion of xenon treatments",88.1%
same,"CGI-S, V2: Moderately expressed disease, share of patients",[1]; Total (n = 81),24.7%
same,"CGI-S, V2: Serious disease, share of patients",[1]; Total (n = 81),2.5%
same,"CGI-S, V2: Significantly expressed disease, share of patients",[1]; Total (n = 81),72.8%
same,"CGI-S, V3: Moderately expressed disease, share of patients",[1]; Total (n = 81),29.6%
same,"CGI-S, V3: Significantly expressed disease, share of patients",[1]; Total (n = 81),70.4%
same,"CGI-S, V4: Moderately expressed disease, share of patients",[1]; Total (n = 81),51.9%
same,"CGI-S, V4: Significantly expressed disease, share of patients",[1]; Total (n = 81),23.5%
same,"CGI-S, V4: Weakly expressed disease, share of patients",[1]; Total (n = 81),24.7%
same,"CGI-S, V5: Borderline state, share of patients",[1]; Total (n = 81),7.4%
same,"CGI-S, V5: Moderately expressed disease, share of patients",[1]; Total (n = 81),45.7%
same,"CGI-S, V5: Significantly expressed disease, share of patients",[1]; Total (n = 81),1.2%
same,"CGI-S, V5: Weakly expressed disease, share of patients",[1]; Total (n = 81),45.7%
same,"CGI-S, V6: Borderline state, share of patients",[1]; Total (n = 81),85.2%
same,"CGI-S, V6: Normal state, share of patients",[1]; Total (n = 81),6.2%
same,"CGI-S, V6: Weakly expressed disease, share of patients",[1]; Total (n = 81),8.6%
same,"CGI-S, V2: Moderately expressed disease, share of patients",[1]; [3],48.7%
same,"CGI-S, V2: Serious disease, share of patients",[1]; [3],.0%
same,"CGI-S, V2: Significantly expressed disease, share of patients",[1]; [3],51.3%
same,"CGI-S, V3: Significantly expressed disease, share of patients",[1]; [3],51.3%
same,"CGI-S, V4: Moderately expressed disease, share of patients",[1]; [3],51.3%
same,"CGI-S, V4: Significantly expressed disease, share of patients",[1]; [3],48.7%
same,"CGI-S, V4: Weakly expressed disease, share of patients",[1]; [3],.0%
same,"CGI-S, V5: Borderline state, share of patients",[1]; [3],.0%
same,"CGI-S, V5: Moderately expressed disease, share of patients",[1]; [3],94.9%
same,"CGI-S, V5: Significantly expressed disease, share of patients",[1]; [3],2.6%
same,"CGI-S, V5: Weakly expressed disease, share of patients",[1]; [3],2.6%
same,"CGI-S, V6: Normal state, share of patients",[1]; [3],.0%
same,"CGI-S, V6: Weakly expressed disease, share of patients",[1]; [3],17.9%
same,"CGI-S, V3: Moderately expressed disease, share of patients","[1]; «Pure PD» (n = 42), total given 39, after the third procedure",48.7%
same,"CGI-S, V6: Borderline state, share of patients","[1]; «Pure PD» (n = 42), total given 39, upon completion of xenon treatments",82.1%
same,mechanism of inhibition of NMDA receptor activity,NMDA receptor,competitive inhibition of the co-agonist glycine
same,"Zung SAS after 1 month − V1, mean paired difference",[2]; Group 1 (n=42),−36.131
same,"Zung SAS after 6 months − V1, mean paired difference",[2]; Group 1 (n=42),−38.214
same,SAS total score,"[2]; Group 1, one month after treatment",36.5 points
same,SAS total score,"[2]; Group 1, study follow up (6 months)",34.5
same,"Zung SAS after 1 month − V1, mean paired difference",[2]; Group 2 (n=39),−17.308
same,"Zung SAS after 6 months − V1, mean paired difference",[2]; Group 2 (n=39),−16.154
same,SAS total score,"[2]; Group 2, one month after treatment",46.8 points
same,SAS total score,"[2]; Group 2, study follow up (6 months)",47.9
